Measurements taken from US8663651B2, “T-140 peptide analogs having CXCR4 super-agonist activity for immunomodulation” (Biokine Therapeutics Ltd., priority 2006, dated 2014).
Square brackets hold non-standard residues; d marks the D form. * marks the point of attachment. Benzoyl(4-F) = O=C(c1ccc(F)cc1)*; Cit = NC(=O)NCCC[C@H](N)C(=O)O

How the values were obtained:
Assay type in all cases: cell-based, human
PC3 cells = assay: MIP3α secretion by PC3 cells, assessed by ELISA
Method: (§1) In this example, regulation of the chemokine MIP3α (macrophage inflammatory protein 3α) was examined. […] In FIG. 1B, PC3 (left panel) and PC3-CXCR4.5 (right panel) cells were stimulated with the indicated concentrations of CXCL12 for 48 hours and MIP3α secretion was assessed by ELISA. The results represent the average of triplicates±STDEV.
(§2) The effects of the CXCR4 antagonist AMD3100 and of 4F-benzoyl-TN14003 (4FB-TN14003), hitherto known as a CXCR4 antagonist, on MIP3α secretion were further tested. […] In FIG. 1C, CXCR4 signaling in PC3 (left panel) and PC3-CXCR4.5 (right panel) cells was inhibited with anti-CXCL12 antibodies (αCXCL12) and Pertussis toxin (PTX) treatments alone or in combination with CXCL12, as indicated. Secretion of MIP3α was assessed by ELISA. The results represent the average of triplicates±STDEV.

PC3-CXCR4.5 cells = assay: MIP3α secretion by PC3-CXCR4.5 cells (CXCR4-overexpressing clone), assessed by ELISA; details: for induced MIP3α secretion after silencing of CXCR4 expression: CXCL12 500 ng/ml or 4F-benzoyl-TN14003 8 μM for additional 48 hours
Method: as §1, §2
(§3) The Dicer-substrate siRNA duplexes of CXCR4 (NCBI accession number NM 003467): sense 5′-[…]-3′ (SEQ ID NO:78), antisense 5′ […]-3′ (SEQ ID NO:79) were purchased from IDT, Coralville, Iowa. The non-specific siRNA duplexes were used as a control. PC3-CXCR4.5 cells were transfected with 200 nmol/L siRNA in serum-free medium using Oligofectamine reagent (Invitrogen, Carlsbad, Calif., USA), according to the manufacturer's instructions. To determine the efficiency of CXCR4RNA interference, at 48 hours post-transfection, the cells were analyzed for CXCR4 expression on mRNA and cell-surface levels.
In FIG. 2C, control (gray) and CXCR4 (black) siRNA-transfected PC3-CXCR4.5 cells at 48 hours post-transfection were incubated with CXCL12 500 ng/ml and 4F-benzoyl-TN14003 8 μM (4FB-TN14003) for additional 48 hours. MIP3α secretion was assessed by ELISA. The results represent the average of triplicates±STDEV.

HL-60 = assay: MIP3α secretion by HL-60 cells, ELISA; details: following stimulation
Method: (§4) The expression of MIP3α in a range of carcinoma cell lines and normal epithelial cells was tested by ELISA. […] Bone marrow endothelial cells, BMEC, glioblastoma cells U87, breast carcinoma cells MDA231, also were negative for MIP3α secretion. […] In addition, MIP3α was also secreted by normal keratinocytes (FIG. 4D) and primary blasts from peripheral blood of patients with AML (FIG. 4C). In FIG. 4, acute promyelocytic leukemia cell lines NB4 (FIG. 4A) and HL60 (FIG. 4B), primary peripheral blasts from the patient with acute myelocytic leukemia (FIG. 4C) and normal keratinocytes (FIG. 4D) were stimulated with the indicated concentration of CXCL12 for 48 hours. The secretion of MIP3α was assayed by ELISA. The results of experiments with NB4, HL60 and keratinocytes represent the average of triplicates±STDEV. […] Secretion of MIP3α was assessed by ELISA. […] The results represent the average of triplicates±STDEV.

NB4 = assay: MIP3α secretion by NB4 cells, ELISA; details: following stimulation
Method: as §4

normal keratinocytes = assay: MIP3α secretion by normal keratinocytes, ELISA; details: following stimulation
Method: as §4

CXCR4 = CXCR4 silencing by siRNA in PC3-CXCR4.5 cells (RT-PCR and FACS); details: 200 nmol/L siRNA, 48 hours post-transfection
Method: as §3
In FIG. 2A, PC3-CXCR4.5 cells 48 hours following the transfection with CXCR4-specific siRNA were stained for the control and CXCR4 antibodies and evaluated by FACS. Left panel, non-transfected cells; middle panel, cells transfected with a control (non-specific) siRNA; right panel, cells transfected with a siRNA directed to CXCR4 (CXCR4 siRNA). Cells were stained for the control (IgG2a-PE, full histograms) and CXCR4 antibodies (IgG2a-12G5, empty histograms).
In FIG. 2B, RT-PCR analysis of CXCR4 of the siRNA-transfected PC3-CXCR4.5 cells 48 hours following the transfection is presented. […] Gene expression was determined using primers specific to CXCR4, or to the housekeeping gene β-actin as a control. […]

[1] = CXCR4 siRNA-transfected PC3-CXCR4.5 cells

Row | Molecule | induced MIP3α secretion after silencing of CXCR4 expression (PC3-CXCR4.5 cells; [1]) | induction of MIP3α secretion in an agonist manner (PC3-CXCR4.5 cells; PC3-CXCR4.5 cells) | MIP3α secretion (HL-60) | MIP3α secretion (NB4) | MIP3α secretion (normal keratinocytes) | also measured
1 | 4F-benzoyl-Arg-Arg-Nal-Cys-Tyr-Cit-Lys-DLys-Pro-Tyr-Arg-Cit-Cys-Arg-NH2 ({Benzoyl(4-F)}-RR[Nal]CY[Cit]K[dK]PYR[Cit]CR-NH2; cysteine pairing not given here) [4F-benzoyl-TN14003] | inhibited | induced in both cell lines MIP3α secretion in an agonist manner | increased | increased | increased | induction of MIP3α secretion in an agonist manner (PC3 cells; PC3 cells): induced in both cell lines MIP3α secretion in an agonist manner; mode of action on CXCR4 (PC3-CXCR4.5 cells; concluded from CXCR4-dependent MIP3α secretion in PC3-CXCR4.5 cells): super agonist for CXCR4
2 | c1cc(CN2CCCNCCNCCCNCC2)ccc1CN1CCCNCCNCCCNCC1 [AMD3100, reference compound] | – | but not AMD3100 induced | – | – | – | –
3 | CXCL12: chemokine, CXCR4's only natural ligand | inhibited | – | increased | increased | increased | MIP3α secretion (PC3 cells; PC3 cells stimulated with increasing doses of CXCL12 for 48 hours): increased the secretion of MIP3α; extent of MIP3α secretion induction compared with 4F-benzoyl-TN14003 (PC3-CXCR4.5 cells; CXCR4-expressing cell lines (general statement)): to a lesser extent than 4F-benzoyl-TN14003; MIP3α secretion (PC3-CXCR4.5 cells; PC3-CXCR4.5 cells stimulated with increasing doses of CXCL12 for 48 hours): increased the secretion of MIP3α
4 | Pertussis toxin [reference compound] | – | – | – | – | – | MIP3α secretion (PC3 cells; PC3 cells, treatment alone or in combination with CXCL12): effectively inhibited the secretion of MIP3α; MIP3α secretion (PC3-CXCR4.5 cells; PC3-CXCR4.5 cells, in combination with CXCL12): did not demonstrate an inhibitory effect on the level of MIP3α; MIP3α secretion (PC3-CXCR4.5 cells; PC3-CXCR4.5 cells, treatment alone): secretion of MIP3α was decreased
5 | siRNA specific for CXCR4: Dicer-substrate siRNA duplexes of CXCR4 (SEQ ID NO:78 sense, SEQ ID NO:79 antisense), purchased from IDT (sense UAAAAUCUUCCUGCCCACCAUCUAC; antisense GUAGAUGGUGGGCAGGAAGAUUUUAUU; Dicer-substrate duplex, purchased, chemistry not given here) [reference compound] | – | – | – | – | – | spontaneous MIP3α secretion after silencing of CXCR4 expression (PC3-CXCR4.5 cells; [1]): inhibited the spontaneous; CXCR4 mRNA and cell surface expression (CXCR4): reduced CXCR4 mRNA and cell surface expression
